# Measurements: patent US9206193B2, “Substituted norindenoisoquinolines, syntheses thereof, and methods of use” (PURDUE RESEARCH FOUNDATION, priority 2010, dated 2015)
# Like-named read-outs stand apart in the source and are kept apart here.
# Key:
# MDA-MB-435 = assay: NCI DTP antiproliferative screen, breast MDA-MB-435; format: cell-based; settings: Homo sapiens
# Protocol: (§1) The norindenoisoquinolines are examined for antiproliferative activity in the National Cancer Institute's Developmental Therapeutics Program (DTP) (Boyd & Paull, Some Practical Considerations and Applications of the National Cancer Institute In Vitro Anticancer Drug Discovery Screen. Drug Development Res. 1995, 34, 91-109; Shoemaker, The NCI60 Human Tumour Cell Line Anticancer Drug screen. Nat. Rev. Cancer 2006, 6, 813-823). Each compound is evaluated against approximately 55 human cell lines representing leukemia, melanoma, and cancers of the lung, colon, brain, breast, ovary, prostate and kidney. After an initial one-dose assay at a single high dose (10^−5 M), only compounds that satisfy the pre-determined threshold inhibition criteria are selected for further 5-dose assay.
# HCT-116 = assay: NCI DTP antiproliferative screen, colon HCT-116; format: cell-based, human
# Protocol: as §1
# OVCAR-3 = assay: NCI DTP antiproliferative screen, ovarian OVCAR-3; format: cell-based, human
# Protocol: as §1
# [1] = system: all human cancer cell lines successfully tested; assay: NCI DTP antiproliferative screen, mean graph midpoint; format: cell-based; settings: average GI50 of all cell lines tested; values outside 10^-8 to 10^-4 M taken as the limits
# Protocol: as §1
# Human recombinant Top1 = biological target: T1, Human recombinant Top1 (Homo sapiens, UniProt P11387); assay: Topoisomerase I-mediated DNA cleavage reactions; format: biochemical; parameters: key to Top1 cleavage: 0: no activity; +: weak activity; ++: similar activity as CPT; +++ and ++++: greater activity than CPT; ++++: similar activity as 1 uM CPT; settings: for Top1 cleavage: semiquantitative, relative to 1 uM CPT, concentrations ranging up to 10 uM
# T1 construct: made in house
# T1 sequence (P11387 1-765): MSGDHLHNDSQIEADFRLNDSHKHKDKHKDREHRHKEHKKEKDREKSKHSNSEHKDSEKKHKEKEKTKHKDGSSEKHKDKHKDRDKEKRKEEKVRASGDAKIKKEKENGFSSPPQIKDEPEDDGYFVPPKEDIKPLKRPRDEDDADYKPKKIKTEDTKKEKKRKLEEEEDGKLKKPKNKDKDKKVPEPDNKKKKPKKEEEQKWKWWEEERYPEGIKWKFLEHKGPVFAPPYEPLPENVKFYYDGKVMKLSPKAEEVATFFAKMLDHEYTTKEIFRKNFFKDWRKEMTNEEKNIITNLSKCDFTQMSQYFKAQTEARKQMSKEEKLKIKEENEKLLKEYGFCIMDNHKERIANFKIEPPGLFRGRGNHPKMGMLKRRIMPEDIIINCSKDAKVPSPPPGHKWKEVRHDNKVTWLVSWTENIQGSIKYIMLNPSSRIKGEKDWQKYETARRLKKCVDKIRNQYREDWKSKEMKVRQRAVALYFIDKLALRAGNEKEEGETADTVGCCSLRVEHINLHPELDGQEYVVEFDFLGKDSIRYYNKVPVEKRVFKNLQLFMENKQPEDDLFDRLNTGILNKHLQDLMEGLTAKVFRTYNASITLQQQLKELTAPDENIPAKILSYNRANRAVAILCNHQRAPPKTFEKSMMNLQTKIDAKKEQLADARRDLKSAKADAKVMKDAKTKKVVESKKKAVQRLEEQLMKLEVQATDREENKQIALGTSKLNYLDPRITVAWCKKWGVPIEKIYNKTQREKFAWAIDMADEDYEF
# Protocol: Norindenoisoquinolines 14a-f are examined for induction of Top1-mediated DNA cleavage using a 117-bp DNA oligonucleotide encompassing the previously identified Top1 cleavage sites in the 161-bp fragment from pBluescript SK(−) phagemid DNA (Dexheimer & Pommier DNA Cleavage Assay for the Identification of Topoisomerase I Inhibitors. Nat. Protocol. 2008, 3, 1736-1750).
# Human recombinant Top1 was purified from baculovirus as previously described.^46 DNA cleavage reactions were prepared as previously reported with the exception of the DNA substrate.^13 Briefly, a 117-bp DNA oligonucleotide (Integrated DNA Technologies) encompassing the previously identified Top1 cleavage sites in the 161-bp fragment from pBluescript SK(−) phagemid DNA was employed. This 117-bp oligonucleotide contains a single 5′-cytosine overhang, which was 3′-end labeled by fill-in reaction with [α-^32P]-dGTP in React 2 buffer (50 mM Tris-HCl, pH 8.0, […], 50 mM NaCl) with 0.5 units of DNA polymerase I (Klenow fragment, New England BioLabs). Unincorporated ^32P-dGTP was removed using mini Quick Spin DNA columns (Roche, Indianapolis, Ind.), and the eluate containing the 3′-end-labeled DNA substrate was collected. Approximately 2 nM of radiolabeled DNA substrate was incubated with recombinant Top1 in 20 μL of reaction buffer [10 mM Tris-HCl (pH 7.5), 50 mM KCl, 5 mM MgCl2, 0.1 mM EDTA, and 15 μg/ml BSA] at 25° C. for 20 min in the presence of various concentrations of compounds. The reactions were terminated by adding SDS (0.5% final concentration) followed by the addition of two volumes of loading dye (80% formamide, 10 mM sodium hydroxide, 1 mM sodium EDTA, 0.1% xylene cyanol, and 0.1% bromphenol blue). Aliquots of each reaction were subjected to 20% denaturing PAGE. Gels were dried and visualized by using a Phosphoimager and ImageQuant software (Molecular Dynamics). For simplicity, cleavage sites were numbered as previously described in the 161-bp fragment.
# DU-145 = assay: NCI DTP antiproliferative screen, prostate DU-145; format: cell-based, human
# Protocol: as §1
# HOP-62 = assay: NCI DTP antiproliferative screen, lung HOP-62; format: cell-based, human
# Protocol: as §1
# UACC-62 = assay: NCI DTP antiproliferative screen, melanoma UACC-62; format: cell-based, human
# Protocol: as §1
# SN12C = assay: NCI DTP antiproliferative screen, renal SN12C; format: cell-based, human
# Protocol: as §1
# SF-539 = assay: NCI DTP antiproliferative screen, CNS SF-539; format: cell-based, human
# Protocol: as §1
# [2] = MDA-MB-435, read-out: Cytotoxicity GI50 Breast MDA-MB-435
# [3] = Homo sapiens, HCT-116, read-out: Cytotoxicity GI50 Colon HCT-116
# [4] = Homo sapiens, OVCAR-3, read-out: Cytotoxicity GI50 Ovarian OVCAR-3
# [5] = Homo sapiens, DU-145, read-out: Cytotoxicity GI50 Prostate DU-145
# [6] = Homo sapiens, HOP-62, read-out: Cytotoxicity GI50 Lung HOP-62
# [7] = Homo sapiens, UACC-62, read-out: Cytotoxicity GI50 Melanoma UACC-62
# [8] = Homo sapiens, SN12C, read-out: Cytotoxicity GI50 Renal SN12C
# [9] = Homo sapiens, read-out: Cytotoxicity GI50 CNS SF-539
# [10] = 117-bp DNA substrate, gel of FIG. 2
structure (smiles),measurement,setting,value
"COc1cc2cnc3c(c2cc1OC)Cc1c-3cc2c(c1CN(C)C)OCO2 [Compound 14a, 2,3-Dimethoxy-8,9-methylenedioxy-10-(dimethylamino)methyl-11H-indeno[1,2-c]isoquinoline]",GI50,MDA-MB-435; [2],16000 nM
same,GI50,HCT-116; [3],1500 nM
same,GI50,OVCAR-3; [4],1400 nM
same,MGM (mean graph midpoint for growth inhibition),[1],4.4 µM
same,Top1 cleavage,Human recombinant Top1,+++
same,GI50,DU-145; [5],1600 nM
same,GI50,HOP-62; [6],6700 nM
same,GI50,UACC-62; [7],12000 nM
same,GI50,SN12C; [8],13000 nM
same,melting point,,205 to 207 °C
same,GI50,SF-539; [9],14000 nM
"COc1cc2cnc3c(c2cc1OC)Cc1c-3cc2c(c1C)OCO2 [Compound 15, 2,3-Dimethoxy-8,9-methylenedioxy-10-methyl-11H-indeno[1,2-c]isoquinoline]",GI50,MDA-MB-435; [2],> 100000 nM
same,GI50,HCT-116; [3],890 nM
same,GI50,OVCAR-3; [4],5800 nM
same,MGM (mean graph midpoint for growth inhibition),[1],11.8 µM
same,44 (C-G) cleavage site in Top1-mediated DNA cleavage pattern,Human recombinant Top1; [10],seen
same,97 (T-A) cleavage site in Top1-mediated DNA cleavage pattern,Human recombinant Top1; [10],observed
same,106 (C-T) cleavage site in Top1-mediated DNA cleavage pattern,Human recombinant Top1; [10],observed
same,Top1 cleavage,Human recombinant Top1,++
same,GI50,DU-145; [5],> 100000 nM
same,GI50,HOP-62; [6],7300 nM
same,GI50,UACC-62; [7],700 nM
same,GI50,SN12C; [8],> 100000 nM
same,melting point,,272 to 274 °C (dec.)
same,GI50,SF-539; [9],4600 nM
"COc1cc2c3c(n(CCCNCCO)c(=O)c2cc1OC)-c1cc2c(cc1C3=O)OCO2 [MJ-III-65, reference compound]",44 (C-G) cleavage site in Top1-mediated DNA cleavage pattern,Human recombinant Top1; [10],seen
same,62 (C-A) cleavage site in Top1-mediated DNA cleavage pattern,Human recombinant Top1; [10],observed
"CC[C@@]1(O)C(=O)OCc2c1cc1n(c2=O)Cc2cc3ccccc3nc2-1 [CPT, camptothecin, reference compound]",GI50,"MDA-MB-435; MDA-MB-435, Table 2, read-out: Cytotoxicity GI50 Breast MDA-MB-435",40 nM
same,GI50,"HCT-116; Homo sapiens, HCT-116, Table 2, read-out: Cytotoxicity GI50 Colon HCT-116",30 nM
same,MGM (mean graph midpoint for growth inhibition),[1],0.0405 µM
same,37 (T-G) cleavage site in Top1-mediated DNA cleavage pattern,Human recombinant Top1; [10],observed
same,44 (C-G) cleavage site in Top1-mediated DNA cleavage pattern,Human recombinant Top1; [10],not
same,Top1 cleavage,Human recombinant Top1,++++
same,GI50,"DU-145; Homo sapiens, DU-145, Table 2, read-out: Cytotoxicity GI50 Prostate DU-145",10 nM
same,GI50,"HOP-62; Homo sapiens, HOP-62, Table 2, read-out: Cytotoxicity GI50 Lung HOP-62",10 nM
same,GI50,"UACC-62; Homo sapiens, UACC-62, Table 2, read-out: Cytotoxicity GI50 Melanoma UACC-62",10 nM
same,GI50,"SN12C; Homo sapiens, SN12C, Table 2, read-out: Cytotoxicity GI50 Renal SN12C",20 nM
same,GI50,"SF-539; Homo sapiens, Table 2, read-out: Cytotoxicity GI50 CNS SF-539",10 nM
"COc1cc2cnc3c(c2cc1OC)Cc1cc2c(cc1-3)OCO2 [Compound 5, reference compound]",44 (C-G) cleavage site in Top1-mediated DNA cleavage pattern,Human recombinant Top1; [10],seen
same,97 (T-A) cleavage site in Top1-mediated DNA cleavage pattern,Human recombinant Top1; [10],observed
same,106 (C-T) cleavage site in Top1-mediated DNA cleavage pattern,Human recombinant Top1; [10],observed
"COc1cc2cnc3c(c2cc1OC)Cc1c-3cc2c(c1CN(C)CCN(C)C)OCO2 [Compound 14f, 2,3-Dimethoxy-8,9-methylenedioxy-10-(N,N,N′-trimethylethylenediamino)methyl-11H-indeno[1,2-c]isoquinoline]",GI50,HCT-116,1900 nM
same,GI50,OVCAR-3,7400 nM
same,MGM (mean graph midpoint for growth inhibition),[1],6.3 µM
same,GI50,DU-145,3400 nM
same,GI50,HOP-62,1500 nM
same,GI50,UACC-62,730 nM
same,GI50,SN12C,> 100000 nM
same,GI50,SF-539,11000 nM
"COc1cc2cnc3c(c2cc1OC)Cc1c-3cc2c(c1CN1CCCC1)OCO2 [Compound 14b, 2,3-Dimethoxy-8,9-methylenedioxy-10-(pyrrolidin-1-yl)methyl-11H-indeno[1,2-c]isoquinoline]",GI50,MDA-MB-435; [2],2500 nM
same,GI50,HCT-116; [3],640 nM
same,GI50,OVCAR-3; [4],730 nM
same,MGM (mean graph midpoint for growth inhibition),[1],2.3 µM
same,Top1 cleavage,Human recombinant Top1,+++
same,GI50,DU-145; [5],730 nM
same,GI50,HOP-62; [6],1200 nM
same,GI50,UACC-62; [7],6700 nM
same,GI50,SN12C; [8],4400 nM
same,melting point,,210 °C (dec.)
same,GI50,SF-539; [9],1900 nM
"COc1cc2cnc3c(c2cc1OC)Cc1c-3cc2c(c1CN1CCOCC1)OCO2 [Compound 14e, 2,3-Dimethoxy-8,9-methylenedioxy-10-(4-morpholino)methyl-11H-indeno[1,2-c]isoquinoline]",GI50,HCT-116,1400 nM
same,GI50,OVCAR-3,1700 nM
same,MGM (mean graph midpoint for growth inhibition),[1],2.4 µM
same,106 (C-T) cleavage site in Top1-mediated DNA cleavage pattern,Human recombinant Top1; [10],absent
same,Top1 cleavage,Human recombinant Top1,+
same,GI50,DU-145,1900 nM
same,GI50,HOP-62,2100 nM
same,GI50,UACC-62,≥ 100000 nM
same,GI50,SN12C,2300 nM
same,GI50,SF-539,1800 nM
"COc1cc2cnc3c(c2cc1OC)Cc1c-3cc2c(c1CN1CCN(C)CC1)OCO2 [Compound 14d, 2,3-Dimethoxy-8,9-methylenedioxy-10-(4-methylpiperazin-1-yl)methyl-11H-indeno[1,2-c]isoquinoline]",106 (C-T) cleavage site in Top1-mediated DNA cleavage pattern,Human recombinant Top1; [10],absent
same,Top1 cleavage,Human recombinant Top1,++
same,melting point,,296 °C (dec.)
